From US11273136B2, “Method for increasing protein content in milk of lactating cows” (neopharma Japan Co., Ltd., priority 2019, dated 2022)

Test system: lactating Holstein milk cows
Test: Crossover feeding test of 5-ALA-supplemented total mixed ration on milk yield and milk composition of lactating cows
Format: in vivo
From the text: Effects of ALAs on the milk composition of a lactating cow was studied. Six lactating Holstein milk cows (average body weight 698±18 kg, average milk production 24.1±1.6 kg/d, average days-in-milk (DIM) 209±34 days, and average number of lactations 2.9±0.4) were placed in a free stable. After a 7-day grace period, 6 cows were randomly assigned to section A and section B (each group n=3). Section A had, after a grace period, an ALA administration period of 14 days (ALA Consumption Group A), with an adjustment period of 7 days interposed, followed by an ALA non-administration period of 14 days (Control Group A), whereas Section B had, after a grace period, an ALA non-administration period of 14 days (Control Group B), with an adjustment period of 7 days interposed, followed by an ALA administration period of 14 days (ALA Consumption Group B), whereby the test was carried out by the crossover method. A total mixed ration (TMR) (see Table 2) which had been used was fed during the above grace period, adjustment period and ALA non-administration period, and a feed to which 10 mg of 5-ALA was added per kg of the total mixed ration (TMR) was fed during the ALA administration period.
5-ALA was provided by neopharma Japan Co., Ltd. Each feed and water were available at any time but feed consumption of each group on a dry base was 23.4 kg/day per cow in the control groups and 23.6 kg/day per cow in the ALA groups. Thus, the daily consumption of 5-ALA in the ALA groups was 0.329.6 mg to 0.347.1 mg/kg b.w./day. Each of the milk cows was milked at 09:00 and 17:00 and allowed to consume each feed at any time after milking.
Amounts of Milking from each cow were automatically recorded everyday by an auto milk recorder (manufactured by ORION MACHINERY CO., LTD.). Additionally, for each group of Section A and Section B, during the last 2 days in the ALA administration period of 14 days and the non-administration period of 14 days, 50 to 100 mL of milk was collected twice a day from cows of each period to use as milk samples for data analysis. The milk samples were preserved at −30° C. until the milk composition and the like were analyzed.
Using the above milk samples collected from each of the cows, the milk composition such as milk fat, proteins, casein, lactose, total solid (TS), solid not fat (SNF), milk urea nitrogen (MUN) and somatic cell count (SCC) was measured using a […] infrared spectroscopy (Milko-Scan, 133N, manufactured by Foss Electric, Hill-erod (Denmark)). Data of each cow were calculated as an average value of 4 milk samples collected for 2 days. For each group of Section A and Section B, the data average of the ALA administration periods (ALA Group A and ALA Group B) was shown under the item of ALA consumption groups, and the data average of the non-administration periods (Control Group A and Control Group B) was shown under the item of Control groups. The data were analyzed statistically as a crossover design using the mixing procedure of SPSS (PASW Statistics 18.0, manufactured by IBM). Statistical analysis of each result was carried out by mixed model and p<0.05(*) meant statistically significant difference. A tendency toward significance was considered at p<0.10.

[1] = 10 mg 5-ALA per kg TMR, 14 days, milk of last 2 days, ± standard error
[2] = 10 mg 5-ALA per kg TMR, 14 days, milk of last 2 days, ± standard error, p<0.05 vs control
[3] = feed to which 5-ALA was added, p<0.05

Compound: NCC(=O)CCC(=O)O [5-ALA, 5-aminolevulinic acid]
- Milk yield (10 mg 5-ALA per kg TMR fed for 14 days, crossover, n=6, ± standard error): 23.78 ± 1.67 kg/day
- Milk composition: Fat [1]: 4.42 ± 0.14%
- Milk composition: Lactose [1]: 4.82 ± 0.02%
- Milk composition: Non-fat solid [1]: 9.03 ± 0.17%
- Milk composition: Overall solid [1]: 13.34 ± 0.28%
- Milk composition: Casein [2]: 2.71 ± 0.09 a %
- Milk composition: Proteins [2]: 3.51 ± 0.12 a %
- Lactose compared with Control Groups (feed to which 5-ALA was added): no particular differences
- Milk fat compared with Control Groups (feed to which 5-ALA was added): no particular differences
- Milk yield compared with Control Groups (feed to which 5-ALA was added): no particular differences
- Non-fat solid compared with Control Groups (feed to which 5-ALA was added): no particular differences
- Overall solid compared with Control Groups (feed to which 5-ALA was added): no particular differences
- Casein content in milk compared with Control Groups [3]: increased significantly
- Protein content in milk compared with Control Groups [3]: increased significantly
